# Source: patent US20230285377A1, “KCNT1 INHIBITORS AND METHODS OF USE” (Praxis Precision Medicines, Inc., priority 2020, published 2023)
# Biological target: KCNT1 (KNa1.1, Slack) (Homo sapiens (Human), UniProt Q5JUK3)
# Assay: KCNT1-WT-Basal - Patch Clamp Assay
# Assay type: cell-based
# Details: tetracycline inducible HEK-TREX cell line; SyncroPatch 384PE automated patch clamp; step to 0 mV; room temperature
# Method: Inhibition of KCNT1 (KNa1.1, Slack) was evaluated using a tetracycline inducible cell line (HEK-TREX). Currents were recorded using the SyncroPatch 384PE automated, patch clamp system. Pulse generation and data collection were performed with PatchController384 V1.3.0 and DataController384 V1.2.1 (Nanion Technologies). The access resistance and apparent membrane capacitance were estimated using built-in protocols. Current were recorded in perforated patch mode (10 µM escin) from a population of cells. The cells were lifted, triturated, and resuspended at 800,000 cells/ml. The cells were allowed to recover in the cell hotel prior to experimentation. Currents were recorded at room temperature. The external solution contained the following (in mM): NaCl 105, NMDG 40, KC1 4, MgC12 1, CaC12 5 and HEPES 10 (pH = 7.4, Osmolarity ~300 mOsm). The extracellular solution was used as the wash, reference and compound delivery solution. The internal solution contained the following (in mM): NaCl 70, KF 70, KC1 10, EGTA 5, HEPES 5 and Escin 0.01 (pH = 7.2, Osmolarity ~295 mOsm). Escin is made at a 5 mM stock in water, aliquoted, and stored at -20° C. The compound plate was created at 2x concentrated in the extracellular solution. The compound was diluted to 1:2 when added to the recording well. The amount of DMSO in the extracellular solution was held constant at the level used for the highest tested concentration. A holding potential of -80 mV with a 100 ms step to 0 mV was used. Mean current was measured during the step to 0 mV. […] The average mean current from 3 sweeps was calculated and the % inhibition of each compound was calculated. The % Inhibition as a function of the compound concentration was fit with a Hill equation to derive IC50, slope, min and max parameters. If KCNT1 inhibition was less than 50% at the highest tested concentration or if an IC50 could not be calculated, then a percent inhibition was reported in place of the IC50.
# In this table, “A” indicates IC50 of less than or equal to 1 µM; “B” indicates inhibition of between 1 µM to 20 µM; and “C” indicates inhibition of greater than or equal to 20 µM.
# Chain of KCNT1 (KNa1.1, Slack) (Q5JUK3 whole entry): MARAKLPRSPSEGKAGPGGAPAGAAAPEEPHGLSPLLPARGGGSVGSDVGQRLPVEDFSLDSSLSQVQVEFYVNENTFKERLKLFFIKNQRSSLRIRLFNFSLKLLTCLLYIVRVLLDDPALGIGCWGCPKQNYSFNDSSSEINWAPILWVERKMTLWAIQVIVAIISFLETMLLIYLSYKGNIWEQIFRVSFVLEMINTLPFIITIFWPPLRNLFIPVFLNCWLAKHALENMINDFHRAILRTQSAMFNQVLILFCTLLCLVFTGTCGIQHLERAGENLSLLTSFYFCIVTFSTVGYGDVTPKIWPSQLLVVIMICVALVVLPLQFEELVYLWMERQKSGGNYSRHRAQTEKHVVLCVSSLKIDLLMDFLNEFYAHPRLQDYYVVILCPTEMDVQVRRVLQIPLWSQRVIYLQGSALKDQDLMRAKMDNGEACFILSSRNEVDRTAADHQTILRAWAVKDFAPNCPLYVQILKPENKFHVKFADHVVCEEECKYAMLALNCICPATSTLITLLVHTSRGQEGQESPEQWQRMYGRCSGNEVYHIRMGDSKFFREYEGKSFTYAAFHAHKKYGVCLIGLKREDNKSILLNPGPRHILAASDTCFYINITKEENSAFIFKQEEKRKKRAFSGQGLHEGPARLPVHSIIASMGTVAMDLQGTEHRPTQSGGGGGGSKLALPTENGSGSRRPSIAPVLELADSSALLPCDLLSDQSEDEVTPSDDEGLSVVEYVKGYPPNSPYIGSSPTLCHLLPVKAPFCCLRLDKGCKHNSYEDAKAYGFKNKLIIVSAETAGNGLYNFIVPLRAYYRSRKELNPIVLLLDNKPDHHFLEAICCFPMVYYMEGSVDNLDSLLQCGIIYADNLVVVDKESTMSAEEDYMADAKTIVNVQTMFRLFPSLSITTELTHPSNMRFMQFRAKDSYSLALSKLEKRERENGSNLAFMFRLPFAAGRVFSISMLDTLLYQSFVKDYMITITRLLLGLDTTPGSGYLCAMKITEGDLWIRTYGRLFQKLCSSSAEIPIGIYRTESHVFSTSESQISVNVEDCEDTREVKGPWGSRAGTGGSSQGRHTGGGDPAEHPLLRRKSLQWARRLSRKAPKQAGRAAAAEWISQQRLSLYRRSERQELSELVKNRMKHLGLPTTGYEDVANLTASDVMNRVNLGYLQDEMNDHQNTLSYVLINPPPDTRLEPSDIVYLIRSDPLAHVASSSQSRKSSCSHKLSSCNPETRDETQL
row,Compound,IC50 [nM]
1,"COCc1cc(-c2nsc([C@@H](C)NC(=O)c3cc(C(F)(F)F)nn3C)n2)ccn1 (single isomer, unassigned) [Example 43]",1000 to 20000
2,"C[C@@H](NC(=O)C1CCCCC1)c1cc(-c2ccnc(C(F)(F)F)c2)no1 (single isomer, unassigned) [Example 26]",≥ 20000
3,"Cc1cc(-c2nsc([C@H](C)NC(=O)c3cc(C(F)(F)F)nn3C)n2)ccn1 [Example 40, 2-methyl-N-[(1S)-1-[3-(2-methyl-4-pyridyl)-1,2,4-thiadiazol-5-yl]ethyl]-5-(trifluoromethyl)pyrazole-3-carboxamide]",1000 to 20000
4,"CC(C)c1cc(C(=O)N[C@H](C)c2cc(-c3ccnc(C(F)(F)F)c3)no2)n(C)n1 (single isomer, unassigned) [Example 24]",1000 to 20000
5,"C[C@@H](NC(=O)c1cccc(C(F)(F)F)c1)c1cc(-c2ccnc(C(F)(F)F)c2)no1 (single isomer, unassigned) [Example 33]",1000 to 20000
6,"C[C@@H](NC(=O)c1cc(C(F)(F)F)nn1C)c1nc(-c2ccnc(C(F)(F)F)c2)ns1 (single isomer, unassigned) [Example 10]",≤ 1000
7,"Cc1cc(-c2nsc([C@@H](C)NC(=O)c3cc(C(F)(F)F)nn3C)n2)ccn1 [Example 41, (R)-1-methyl-N-(1-(3-(2-methylpyridin-4-yl)-1,2,4-thiadiazol-5-yl)ethyl)-3-(trifluoromethyl)-1H-pyrazole-5-carboxamide]",1000 to 20000
8,"C[C@H](NC(=O)N1CCCCC1)c1cc(-c2ccnc(C(F)(F)F)c2)no1 (single isomer, unassigned) [Example 8]",≥ 20000
9,"C[C@@H](NC(=O)c1cc(C(F)(F)F)nn1C)c1nc(N2CCCCC2)ns1 [Example 47, 2-methyl-N-[(1R)-1-[3-(1-piperidyl)-1,2,4-thiadiazol-5-yl]ethyl]-5-(trifluoromethyl)pyrazole-3-carboxamide]",1000 to 20000
10,"C[C@H](NC(=O)c1ccccc1)c1cc(-c2ccnc(C3CC3)c2)no1 (single isomer, unassigned) [Example 14]",≤ 1000
11,"C[C@@H](NC(=O)c1cc(C(F)(F)F)nn1C)c1cc(-c2ccnc(C3CC3)c2)no1 (single isomer, unassigned) [Example 16]",≤ 1000
12,"C[C@H](NC(=O)c1cc(C(F)F)nn1C)c1cc(-c2ccnc(C(F)(F)F)c2)no1 (single isomer, unassigned) [Example 31]",≤ 1000
13,"C[C@@H](NC(=O)c1cccc(Cl)c1)c1cc(-c2ccnc(C(F)(F)F)c2)no1 (single isomer, unassigned) [Example 20]",1000 to 20000
14,"C[C@@H](NC(=O)N1CCCc2ccccc21)c1cc(-c2ccnc(C(F)(F)F)c2)no1 (single isomer, unassigned) [Example 35]",≤ 1000
15,"C[C@@H](NC(=O)c1ccccc1)c1nc(-c2ccnc(C3CC3)c2)ns1 [Example 5, (R)-N-(1-(3-(2-cyclopropylpyridin-4-yl)-1,2,4-thiadiazol-5-yl)ethyl)benzamide]",≤ 1000
16,"C[C@H](NC(=O)c1cccc(Cl)c1)c1cc(-c2ccnc(C3CC3)c2)no1 (single isomer, unassigned) [Example 18]",1000 to 20000
17,"C[C@@H](NC(=O)c1ccccc1)c1cc(-c2ccnc(C3CC3)c2)no1 (single isomer, unassigned) [Example 15]",1000 to 20000
18,"COc1cc(-c2nsc([C@H](C)NC(=O)c3cc(C(F)(F)F)nn3C)n2)ccn1 [Example 44, 2-methyl-N-[(1S)-1-[3-(2-methoxy-4-pyridyl)-1,2,4-thiadiazol-5-yl]ethyl]-5-(trifluoromethyl)pyrazole-3-carboxamide]",≤ 1000
19,"C[C@@H](NC(=O)c1cc(C(F)F)nn1C)c1cc(-c2ccnc(C(F)(F)F)c2)no1 (single isomer, unassigned) [Example 30]",1000 to 20000
20,"C[C@@H](NC(=O)Cc1ccccc1)c1cc(-c2ccnc(C(F)(F)F)c2)no1 (single isomer, unassigned) [Example 28]",≥ 20000
21,"C[C@H](NC(=O)N1CCCc2ccccc21)c1cc(-c2ccnc(C(F)(F)F)c2)no1 (single isomer, unassigned) [Example 34]",1000 to 20000
22,"CC(NC(=O)c1cc(C(F)(F)F)nn1C)c1nc(-c2ccnc(C(F)(F)F)c2)ns1 (centres unmarked) [Example 1, 1-methyl-3-(trifluoromethyl)-N-(1-(3-(2-(trifluoromethyl)pyridin-4-yl)-1,2,4-thiadiazol-5-yl)ethyl)-1H-pyrazole-5-carboxamide]",≤ 1000

row,Compound,IC50 [nM]
1,"C[C@H](NC(=O)c1ccccc1)c1nc(-c2ccnc(C3CC3)c2)ns1 [Example 4, (S)-N-(1-(3-(2-cyclopropylpyridin-4-yl)-1,2,4-thiadiazol-5-yl)ethyl)benzamide]",≤ 1000
2,"C[C@H](NC(=O)c1cccc(Cl)c1)c1nc(-c2ccnc(C3CC3)c2)ns1 (single isomer, unassigned) [Example 6]",≤ 1000
3,"C[C@H](NC(=O)c1ccccc1)c1cc(-c2ccnc(C(F)(F)F)c2)no1 (single isomer, unassigned) [Example 23]",1000 to 20000
4,"C[C@H](NC(=O)c1cccc(C(F)(F)F)c1)c1cc(-c2ccnc(C(F)(F)F)c2)no1 (single isomer, unassigned) [Example 32]",≤ 1000
5,"C[C@@H](NC(=O)c1cccc(Cl)c1)c1cc(-c2ccnc(C3CC3)c2)no1 (single isomer, unassigned) [Example 19]",≤ 1000
6,"C[C@H](NC(=O)c1cc(C(F)(F)F)nn1C)c1nc(N2CCCCC2)ns1 [Example 46, 2-methyl-N-[(1S)-1-[3-(1-piperidyl)-1,2,4-thiadiazol-5-yl]ethyl]-5-(trifluoromethyl)pyrazole-3-carboxamide]",1000 to 20000
7,"C[C@@H](NC(=O)c1ccccc1)c1cc(-c2ccnc(C(F)(F)F)c2)no1 (single isomer, unassigned) [Example 22]",≥ 20000
8,"C[C@H](NC(=O)C1CCCCC1)c1cc(-c2ccnc(C(F)(F)F)c2)no1 (single isomer, unassigned) [Example 27]",1000 to 20000
9,"C[C@H](NC(=O)c1cccc(Cl)c1)c1cc(-c2ccnc(C(F)(F)F)c2)no1 (single isomer, unassigned) [Example 21]",≤ 1000
10,"CC(C)c1cc(C(=O)N[C@@H](C)c2cc(-c3ccnc(C(F)(F)F)c3)no2)n(C)n1 (single isomer, unassigned) [Example 25, (N)-3-isopropyl-1-methyl-N-(1-(3-(2-(trifluoromethyl)pyridin-4-yl)isoxazol-5-yl)ethyl)-1H pyrazole-5-carboxamide]",≤ 1000
11,"C[C@H](NC(=O)c1ccnn1C1CCC1)c1cc(-c2ccnc(C(F)(F)F)c2)no1 (single isomer, unassigned) [Example 37]",1000 to 20000
12,"C[C@H](NC(=O)c1cc(C(F)(F)F)nn1C)c1cc(-c2ccnc(C3CC3)c2)no1 (single isomer, unassigned) [Example 17]",1000 to 20000
13,"C[C@H](NC(=O)c1cc(C(F)(F)F)nn1C)c1cc(-c2ccnc(C(F)(F)F)c2)no1 (single isomer, unassigned) [Example 2]",≤ 1000
14,"C[C@H](NC(=O)c1cc(C(F)(F)F)nn1C)c1nc(-c2ccnc(C3CC3)c2)ns1 (single isomer, unassigned) [Example 12]",≤ 1000
15,"C[C@H](NC(=O)Cc1ccccc1)c1cc(-c2ccnc(C(F)(F)F)c2)no1 (single isomer, unassigned) [Example 29]",1000 to 20000
16,"C[C@@H](NC(=O)c1cc(C(F)(F)F)nn1C)c1cc(-c2ccnc(C(F)(F)F)c2)no1 (single isomer, unassigned) [Example 3]",1000 to 20000
17,"COCc1cc(-c2nsc([C@H](C)NC(=O)c3cc(C(F)(F)F)nn3C)n2)ccn1 (single isomer, unassigned) [Example 42]",1000 to 20000
18,"COc1cc(-c2nsc([C@@H](C)NC(=O)c3cc(C(F)(F)F)nn3C)n2)ccn1 [Example 45, 2-methyl-N-[(1R)-1-[3-(2-methoxy-4-pyridyl)-1,2,4-thiadiazol-5-yl]ethyl]-5-(trifluoromethyl)pyrazole-3-carboxamide]",≤ 1000
19,"C[C@H](NC(=O)c1cc(C(F)(F)F)nn1C)c1nc(-c2ccnc(C(F)(F)F)c2)ns1 (single isomer, unassigned) [Example 11]",≤ 1000
20,"C[C@@H](NC(=O)N1CCOc2ccccc21)c1cc(-c2ccnc(C(F)(F)F)c2)no1 (single isomer, unassigned) [Example 39]",≤ 1000
21,"C[C@@H](NC(=O)c1ccnn1C1CCC1)c1cc(-c2ccnc(C(F)(F)F)c2)no1 (single isomer, unassigned) [Example 36]",≤ 1000
22,"C[C@H](NC(=O)N1CCOc2ccccc21)c1cc(-c2ccnc(C(F)(F)F)c2)no1 (single isomer, unassigned) [Example 38]",1000 to 20000
